Data reported in publication PMC5218480 (PLoS ONE, 2017).

Tested on: MV-4-11 cells
Assay: Gene expression microarray analysis (Affymetrix PrimeView) and GSEA
Type: cell-based, human
Design: RFU PODN (11730768_x_at) / Fold change /veh PODN (11730768_x_at) / RFU LINC00158 (11744669_a_at) / Fold change /veh LINC00158 (11744669_a_at) / RFU DUSP10 (11751237_a_at) / Fold change /veh DUSP10 (11751237_a_at) / RFU ID3 (11757404_x_at) / Fold change /veh ID3 (11757404_x_at) / RFU PLEKHG5 (11737974_s_at) / Fold change /veh PLEKHG5 (11737974_s_at) / RFU LRRC4B (11730491_at) / Fold change /veh LRRC4B (11730491_at) / RFU GIMAP4 (11747438_a_at) / Fold change /veh GIMAP4 (11747438_a_at) / RFU KRT8 (11758183_x_at) / Fold change /veh KRT8 (11758183_x_at) / RFU CNN1 (11734310_a_at) / Fold change /veh CNN1 (11734310_a_at) / RFU VPS37D (11726825_at) / Fold change /veh VPS37D (11726825_at) / RFU C10orf10 (11716522_x_at) / Fold change /veh C10orf10 (11716522_x_at) / RFU KIR2DL2 /// KIR2DL4 /// KIR2DL5A /// KIR2DL5B /// KIR2DS1 /// KIR2DS2 /// KIR2DS3 /// KIR2DS4 /// KIR3DL3 /// KIR3DL3 /// KIR3DS1 (11738374_at) / Fold change /veh KIR2DL2 /// KIR2DL4 /// KIR2DL5A /// KIR2DL5B /// KIR2DS1 /// KIR2DS2 /// KIR2DS3 /// KIR2DS4 /// KIR3DL3 /// KIR3DL3 /// KIR3DS1 (11738374_at) / RFU C1QL1 (11718748_at) / Fold change /veh C1QL1 (11718748_at) / RFU TMPRSS4 (11747572_a_at) / Fold change /veh TMPRSS4 (11747572_a_at) / RFU HAMP (11756126_x_at) / Fold change /veh HAMP (11756126_x_at) / RFU RNFT2 (11725882_a_at) / Fold change /veh RNFT2 (11725882_a_at) / RFU NR4A2 (11747474_a_at) / Fold change /veh NR4A2 (11747474_a_at) / RFU ABCC12 (11746883_a_at) / Fold change /veh ABCC12 (11746883_a_at) / RFU TMEM136 (11760407_x_at) / Fold change /veh TMEM136 (11760407_x_at) / RFU CLDN22 /// WWC2 (11732394_at) / Fold change /veh CLDN22 /// WWC2 (11732394_at) / RFU HLA-DPB1 (11760878_x_at) / Fold change /veh HLA-DPB1 (11760878_x_at) / RFU SPINT1 (11716480_a_at) / Fold change /veh SPINT1 (11716480_a_at) / RFU GAP43 (11754022_s_at) / Fold change /veh GAP43 (11754022_s_at) / RFU A4GNT (11735810_at) / Fold change /veh A4GNT (11735810_at) / RFU PRB3 (11715151_x_at) / Fold change /veh PRB3 (11715151_x_at) / RFU TUBB4B (11761932_at) / Fold change /veh TUBB4B (11761932_at) / RFU CAPN14 (11732068_a_at) / Fold change /veh CAPN14 (11732068_a_at) / RFU TMCC2 (11721928_a_at) / Fold change /veh TMCC2 (11721928_a_at) / RFU IRGQ (11745062_a_at) / Fold change /veh IRGQ (11745062_a_at) / RFU FAM174B (11720279_a_at) / Fold change /veh FAM174B (11720279_a_at) / RFU TMPRSS4 (11748680_a_at) / Fold change /veh TMPRSS4 (11748680_a_at) / RFU FAM212B (11763350_a_at) / Fold change /veh FAM212B (11763350_a_at) / RFU PLEKHG5 (11743358_a_at) / Fold change /veh PLEKHG5 (11743358_a_at) / RFU ZSCAN30 (11745921_a_at) / Fold change /veh ZSCAN30 (11745921_a_at) / RFU CMKLR1 (11741424_a_at) / Fold change /veh CMKLR1 (11741424_a_at) / RFU LOC101060620 /// MAPK8IP1 (11723275_at) / Fold change /veh LOC101060620 /// MAPK8IP1 (11723275_at) / RFU SPTSSB (11747773_x_at) / Fold change /veh SPTSSB (11747773_x_at) / RFU PRSS12 (11739890_at) / Fold change /veh PRSS12 (11739890_at) / RFU BIN1 (11741810_x_at) / Fold change /veh BIN1 (11741810_x_at) / RFU WNT11 (11732464_a_at) / Fold change /veh WNT11 (11732464_a_at) / RFU C10orf10 (11716521_a_at) / Fold change /veh C10orf10 (11716521_a_at) / RFU C5orf56 (11738089_at) / Fold change /veh C5orf56 (11738089_at) / RFU CYB561 (11721691_x_at) / Fold change /veh CYB561 (11721691_x_at) / RFU ANKRD19P (11752326_a_at) / Fold change /veh ANKRD19P (11752326_a_at) / RFU OR2T12 /// OR2T33 /// OR2T8 (11738714_s_at) / Fold change /veh OR2T12 /// OR2T33 /// OR2T8 (11738714_s_at) / RFU VCAN (11748164_a_at) / Fold change /veh VCAN (11748164_a_at) / RFU JSRP1 (11732532_at) / Fold change /veh JSRP1 (11732532_at) / RFU KRTAP10-11 (11738290_x_at) / Fold change /veh KRTAP10-11 (11738290_x_at) / RFU MYO3A (11730013_a_at) / Fold change /veh MYO3A (11730013_a_at) / RFU EBF3 (11725865_a_at) / Fold change /veh EBF3 (11725865_a_at) / RFU CAMK2N1 (11719241_x_at) / Fold change /veh CAMK2N1 (11719241_x_at) / RFU C5orf56 (11738088_a_at) / Fold change /veh C5orf56 (11738088_a_at) / RFU OLFML3 (11715873_a_at) / Fold change /veh OLFML3 (11715873_a_at) / RFU LOC100653217 /// NTM (11731650_a_at) / Fold change /veh LOC100653217 /// NTM (11731650_a_at) / RFU MAPK11 (11762145_a_at) / Fold change /veh MAPK11 (11762145_a_at) / RFU FIZ1 (11724087_x_at) / Fold change /veh FIZ1 (11724087_x_at) / RFU OASL (11726364_x_at) / Fold change /veh OASL (11726364_x_at) / RFU SOX15 (11748057_x_at) / Fold change /veh SOX15 (11748057_x_at) / RFU CD79A (11719716_a_at) / Fold change /veh CD79A (11719716_a_at) / RFU HIST1H1D (11736915_at) / Fold change /veh HIST1H1D (11736915_at) / RFU CASKIN2 (11723855_a_at) / Fold change /veh CASKIN2 (11723855_a_at) / RFU LOC730098 (11760151_x_at) / Fold change /veh LOC730098 (11760151_x_at) / RFU OR4N2 (11742367_at) / Fold change /veh OR4N2 (11742367_at) / RFU PRRT2 (11749266_a_at) / Fold change /veh PRRT2 (11749266_a_at) / RFU SNX32 (11753110_a_at) / Fold change /veh SNX32 (11753110_a_at) / RFU CDHR5 (11726645_a_at) / Fold change /veh CDHR5 (11726645_a_at) / RFU RCAN1 (11760418_a_at) / Fold change /veh RCAN1 (11760418_a_at) / RFU FAM167A (11723789_a_at) / Fold change /veh FAM167A (11723789_a_at) / RFU FAM26E (11764081_at) / Fold change /veh FAM26E (11764081_at) / RFU ISYNA1 (11749810_s_at) / Fold change /veh ISYNA1 (11749810_s_at) / RFU ACY1 (11761880_at) / Fold change /veh ACY1 (11761880_at) / RFU 11764098_at / Fold change /veh 11764098_at / RFU SAMD14 (11745864_x_at) / Fold change /veh SAMD14 (11745864_x_at) / RFU NPB (11741838_a_at) / Fold change /veh NPB (11741838_a_at) / RFU TMPRSS6 (11731388_a_at) / Fold change /veh TMPRSS6 (11731388_a_at) / RFU KRTAP10-2 (11738614_at) / Fold change /veh KRTAP10-2 (11738614_at) / RFU ARHGAP8 /// PRR5-ARHGAP8 (11727945_x_at) / Fold change /veh ARHGAP8 /// PRR5-ARHGAP8 (11727945_x_at) / RFU KRTAP5-7 /// NADSYN1 (11734609_at) / Fold change /veh KRTAP5-7 /// NADSYN1 (11734609_at) / RFU RASL12 (11751679_a_at) / Fold change /veh RASL12 (11751679_a_at) / RFU CDKN2B (11736163_a_at) / Fold change /veh CDKN2B (11736163_a_at) / RFU PRF1 (11729649_at) / Fold change /veh PRF1 (11729649_at) / RFU, ZNF638 /// ZNF638-IT1 / Fold change vs veh, ZNF638 /// ZNF638-IT1 / RFU, PANK3 / Fold change vs veh, PANK3 / RFU, SH3YL1 / Fold change vs veh, SH3YL1 / RFU, ZEB2 / Fold change vs veh, ZEB2 / RFU, NRIP1 / Fold change vs veh, NRIP1 / RFU, PTTG1IP / Fold change vs veh, PTTG1IP / RFU, CAPN2 / Fold change vs veh, CAPN2 / RFU, MED14 / Fold change vs veh, MED14 / RFU, SNORA58 / Fold change vs veh, SNORA58 / RFU, C1orf63 / Fold change vs veh, C1orf63 / RFU, LRRFIP1 / Fold change vs veh, LRRFIP1 / RFU, NDUFAF7 / Fold change vs veh, NDUFAF7 / RFU, SLC12A2 / Fold change vs veh, SLC12A2 / RFU, IBTK / Fold change vs veh, IBTK / RFU, ESF1 / Fold change vs veh, ESF1 / Fold change vs veh, TMEM50B / RFU, TAOK1 / Fold change vs veh, TAOK1 / RFU, ACBD3 / Fold change vs veh, ACBD3 / RFU, TMA16 / Fold change vs veh, TMA16 / RFU, RWDD3 / Fold change vs veh, RWDD3 / RFU, BCAT1 / Fold change vs veh, BCAT1 / RFU, EDEM3 / Fold change vs veh, EDEM3 / RFU, TMEM33 / Fold change vs veh, TMEM33 / RFU, WDR75 / Fold change vs veh, WDR75 / RFU, AHCTF1 / Fold change vs veh, AHCTF1 / RFU, TFRC / Fold change vs veh, TFRC / RFU, ZDHHC17 / Fold change vs veh, ZDHHC17 / RFU, NOM1 / Fold change vs veh, NOM1 / RFU, ARL8B / Fold change vs veh, ARL8B / RFU, ZBTB11 / Fold change vs veh, ZBTB11 / RFU, TAMM41 / Fold change vs veh, TAMM41 / RFU, KIAA1704 /// LOC100996395 / Fold change vs veh, KIAA1704 /// LOC100996395 / RFU, ING1 / Fold change vs veh, ING1 / RFU, TRMT61B / Fold change vs veh, TRMT61B / RFU, FUBP3 / Fold change vs veh, FUBP3 / RFU, TP53 / Fold change vs veh, TP53 / RFU, TNKS2 / Fold change vs veh, TNKS2 / RFU, ZFP14 / Fold change vs veh, ZFP14 / RFU, ACTR2 / Fold change vs veh, ACTR2 / RFU, PPP3R1 / Fold change vs veh, PPP3R1 / RFU, PIK3R1 / Fold change vs veh, PIK3R1 / RFU, HNRNPA1 / Fold change vs veh, HNRNPA1 / RFU, RNF170 / Fold change vs veh, RNF170 / RFU, ZNF28 / Fold change vs veh, ZNF28 / RFU, RNGTT / Fold change vs veh, RNGTT / RFU, OGT / Fold change vs veh, OGT / RFU, BRD1 / Fold change vs veh, BRD1 / RFU, MARS / Fold change vs veh, MARS / RFU, ZNF655 / Fold change vs veh, ZNF655 / RFU, FAHD1 / Fold change vs veh, FAHD1 / RFU, BDP1 / Fold change vs veh, BDP1 / RFU, LRRCC1 / Fold change vs veh, LRRCC1 / RFU, ARID1A / Fold change vs veh, ARID1A / RFU, ZNF146 / Fold change vs veh, ZNF146 / RFU, ZNF330 / Fold change vs veh, ZNF330 / RFU, GPN3 / Fold change vs veh, GPN3 / RFU, C9orf123 / Fold change vs veh, C9orf123 / RFU, N4BP2L2 / Fold change vs veh, N4BP2L2 / RFU, ARFIP1 / Fold change vs veh, ARFIP1 / RFU, FAM179B / Fold change vs veh, FAM179B / RFU, BCL10 / Fold change vs veh, BCL10 / RFU, UHRF1BP1L / Fold change vs veh, UHRF1BP1L / RFU, BET1 / Fold change vs veh, BET1 / RFU, CNOT2 / Fold change vs veh, CNOT2 / RFU, ZNF268 / Fold change vs veh, ZNF268 / Fold change vs veh, ZNF507 / RFU, DGCR2 / Fold change vs veh, DGCR2 / RFU, WDSUB1 / Fold change vs veh, WDSUB1 / Fold change vs veh, HSP90B1 /// MIR3652 / RFU, ADSS / Fold change vs veh, ADSS / RFU, GK / Fold change vs veh, GK / RFU, ZNF148 / Fold change vs veh, ZNF148 / RFU, TAF9 / Fold change vs veh, TAF9 / RFU, SLC1A5 / Fold change vs veh, SLC1A5 / RFU, SLMO2 / Fold change vs veh, SLMO2 / RFU, ABCC4 / Fold change vs veh, ABCC4 / RFU, LOC101060439 /// RAP1B / Fold change vs veh, LOC101060439 /// RAP1B / RFU, RFX7 / Fold change vs veh, RFX7 / RFU, GTPBP10 / Fold change vs veh, GTPBP10 / RFU, CNEP1R1 / Fold change vs veh, CNEP1R1 / RFU, BIVM-ERCC5 /// ERCC5 / Fold change vs veh, BIVM-ERCC5 /// ERCC5 / RFU, ILF3 / Fold change vs veh, ILF3 / RFU 11762660_at / Fold change /veh 11762660_at / RFU VCAN (11757783_s_at) / Fold change /veh VCAN (11757783_s_at) / RFU DDX43 (11728927_at) / Fold change /veh DDX43 (11728927_at) / RFU KRT8 (11758188_x_at) / Fold change /veh KRT8 (11758188_x_at) / RFU NKD1 (11759106_at) / Fold change /veh NKD1 (11759106_at) / RFU SRD5A1 (11742802_a_at) / Fold change /veh SRD5A1 (11742802_a_at) / RFU TPSAB1 /// TPSB2 (11721975_s_at) / Fold change /veh TPSAB1 /// TPSB2 (11721975_s_at) / RFU GSTM3 (11746129_a_at) / Fold change /veh GSTM3 (11746129_a_at) / RFU IL23R (11737362_x_at) / Fold change /veh IL23R (11737362_x_at) / RFU TMEM51 (11727254_a_at) / Fold change /veh TMEM51 (11727254_a_at) / RFU PIWIL2 (11732686_x_at) / Fold change /veh PIWIL2 (11732686_x_at) / RFU ORM1 (11744905_x_at) / Fold change /veh ORM1 (11744905_x_at) / RFU CCDC152 (11743942_at) / Fold change /veh CCDC152 (11743942_at) / RFU ECM1 (11717891_a_at) / Fold change /veh ECM1 (11717891_a_at) / RFU IL23R (11748794_a_at) / Fold change /veh IL23R (11748794_a_at) / RFU TNFAIP8L3 (11732012_x_at) / Fold change /veh TNFAIP8L3 (11732012_x_at) / RFU MBOAT4 (11741988_at) / Fold change /veh MBOAT4 (11741988_at) / RFU 11764193_at / Fold change /veh 11764193_at / RFU TMEM53 (11763286_at) / Fold change /veh TMEM53 (11763286_at) / RFU MAGEB2 (11727129_at) / Fold change /veh MAGEB2 (11727129_at) / RFU TMEM200A (11744735_a_at) / Fold change /veh TMEM200A (11744735_a_at) / RFU CCDC152 (11751479_a_at) / Fold change /veh CCDC152 (11751479_a_at) / RFU FAM211A (11726209_a_at) / Fold change /veh FAM211A (11726209_a_at) / RFU RGS16 (11746705_a_at) / Fold change /veh RGS16 (11746705_a_at) / RFU VCAN (11755009_s_at) / Fold change /veh VCAN (11755009_s_at) / RFU RHOB (11743442_s_at) / Fold change /veh RHOB (11743442_s_at) / RFU RGS16 (11720943_a_at) / Fold change /veh RGS16 (11720943_a_at) / RFU RGS16 (11720944_at) / Fold change /veh RGS16 (11720944_at) / RFU, VPS4B / Fold change vs veh, VPS4B / RFU, CREB1 / Fold change vs veh, CREB1 / RFU, DNAJC13 / Fold change vs veh, DNAJC13 / RFU, GNAQ / Fold change vs veh, GNAQ / RFU, CDK5R1 / Fold change vs veh, CDK5R1 / RFU, ZRANB3 / Fold change vs veh, ZRANB3 / RFU, CUL4A / Fold change vs veh, CUL4A / RFU, CCNY / Fold change vs veh, CCNY / RFU, UFL1 / Fold change vs veh, UFL1 / RFU, COG3 / Fold change vs veh, COG3 / RFU, DIAPH2 / Fold change vs veh, DIAPH2 / RFU, SKA2 / Fold change vs veh, SKA2 / RFU, AFF3 / Fold change vs veh, AFF3 / RFU, LMF1 / Fold change vs veh, LMF1 / RFU, IPO11 / Fold change vs veh, IPO11 / RFU, DFFB / Fold change vs veh, DFFB / RFU, FOXP1 / Fold change vs veh, FOXP1 / RFU, CARD8 / Fold change vs veh, CARD8 / RFU, STRN3 / Fold change vs veh, STRN3 / RFU, ADK / Fold change vs veh, ADK / RFU, RASSF2 / Fold change vs veh, RASSF2 / RFU, WIPF1 / Fold change vs veh, WIPF1 / RFU, LARP1B / Fold change vs veh, LARP1B / RFU, RASA1 / Fold change vs veh, RASA1 / RFU, RB1 / Fold change vs veh, RB1 / RFU, PPFIA1 / Fold change vs veh, PPFIA1 / RFU, MAT2A / Fold change vs veh, MAT2A / RFU, CCT5 / Fold change vs veh, CCT5 / RFU, WDR92 / Fold change vs veh, WDR92 / RFU, CUX1 / Fold change vs veh, CUX1 / RFU, TTC7A / Fold change vs veh, TTC7A / RFU, TMEM135 / Fold change vs veh, TMEM135 / RFU, DEPTOR / Fold change vs veh, DEPTOR / RFU, CPM / Fold change vs veh, CPM / RFU, DNAJB6 / Fold change vs veh, DNAJB6 / RFU, CACNA2D3 / Fold change vs veh, CACNA2D3 / RFU, DTX4 / Fold change vs veh, DTX4 / RFU, TFCP2 / Fold change vs veh, TFCP2 / RFU, GMCL1 /// GMCL1P1 / Fold change vs veh, GMCL1 /// GMCL1P1 / RFU, AEBP2 / Fold change vs veh, AEBP2 / RFU, SNHG1 /// SNORD22 /// SNORD25 /// SNORD26 /// SNORD27 /// SNORD28 /// SNORD29 /// SNORD31 / Fold change vs veh, SNHG1 /// SNORD22 /// SNORD25 /// SNORD26 /// SNORD27 /// SNORD28 /// SNORD29 /// SNORD31 / Fold change (Aza/veh), C12orf56 (ProbeSet 11735607_a_at) / Fold change (ACY-1035/veh), C12orf56 (ProbeSet 11735607_a_at) / Fold change (Aza/veh), FGFR1OP (ProbeSet 11751329_s_at) / Fold change (ACY-1035/veh), FGFR1OP (ProbeSet 11751329_s_at) / Fold change (Aza/veh), VPS36 (ProbeSet 11739960_a_at) / Fold change (ACY-1035/veh), VPS36 (ProbeSet 11739960_a_at) / RFU SYPL1 (11715823_x_at) / Fold change /veh SYPL1 (11715823_x_at) / RFU IGFBP7 (11715501_s_at) / Fold change /veh IGFBP7 (11715501_s_at) / RFU REEP3 (11722064_at) / Fold change /veh REEP3 (11722064_at) / RFU IGLL1 (11728026_x_at) / Fold change /veh IGLL1 (11728026_x_at): dose or concentration left out as unconfirmed
Details: ProbeSet 11743929_at; LIST B

Nc1ccc(-c2cccs2)cc1NC(=O)c1ccc2c(c1)cc(C1CC1)n2CCN1CCOCC1 [ACY-1035]
Fold change vs veh, UHRF1BP1L: 0.90
